According to ChEMBL document CHEMBL1137099, “Synthesis of novel rhinacanthins and related anticancer naphthoquinone esters” (J Med Chem, 2004):

What was measured:
Type in all cases: functional, cell-based
KB [1] = experiment: Concentration required to inhibit growth of human epidermoid carcinoma (KB) cell line
HepG2 = experiment: Concentration required to inhibit growth of human hepatocellular carcinoma (HepG2) cell line
HeLa = experiment: Concentration required to inhibit growth of human cervical carcinoma (HeLa) cell line
Vero = experiment: Concentration required to inhibit growth of african green monkey kidney cell line; conditions: Chlorocebus sabaeus
KB [2] = experiment: Concentration required to inhibit growth of human epidermoid carcinoma (KB) cell line; IA= Inactive

| IC50 (KB [1]) | IC50 (HepG2) | IC50 (HeLa) | IC50 (KB [2]) | Compound | IC50 (Vero) |
| --- | --- | --- | --- | --- | --- |
| 91.5 µM | 127 µM | 44.9 µM |  | COC1=C(CC(C)(C)COC(=O)c2ccc3ccccc3c2)C(=O)c2ccccc2C1=O | 47.9 µM |
| 12.3 µM | 16.2 µM | 15.1 µM |  | O=C1C(=O)c2ccccc2C(O)=C1CCCOC(=O)c1ccc2ccccc2c1O | 124 µM |
| 59.4 µM |  |  |  | CC(CO)CC1=C(O)C(=O)c2ccccc2C1=O (centres undefined) |  |
|  |  |  | Not Active | O=C(O)C1=CCc2ccccc2C1O (centres undefined) |  |
| 64.4 µM | 47.6 µM | 45.5 µM |  | CC(C)(COC(=O)c1cc(O)ccc1O)CC1=C(O)C(=O)c2ccccc2C1=O | 77 µM |
| 13.7 µM | 10.2 µM | 12.9 µM |  | O=C(OCCCC1=CC(=O)c2ccccc2C1=O)c1ccc2ccccc2c1 | 14.9 µM |
| 38.6 µM | 42.1 µM | 46.2 µM |  | CC(COC(=O)c1ccc2ccccc2c1O)CC1=CC(=O)c2ccccc2C1=O (centres undefined) | 37.9 µM |
| 14.9 µM | 40.7 µM | 38.8 µM |  | COC1=C(CC(C)(C)COC(=O)c2cc(OC)ccc2OC)C(=O)c2ccccc2C1=O | 13.4 µM |
| 1.59 µM | 1.3 µM | 1.17 µM |  | CC(C)(COC(=O)c1ccc2ccccc2c1)CC1=C(O)C(=O)c2ccccc2C1=O | 1.5 µM |
| 3.52 µM | 3.65 µM | 3.8 µM |  | COc1cc(C(=O)OCC(C)CC2=C(O)C(=O)c3ccccc3C2=O)c(OC)c2ccccc12 (centres undefined) | 5.91 µM |
| 3.58 µM | 3.7 µM | 4.25 µM |  | CC(COC(=O)c1ccc2ccccc2c1)CC1=C(O)C(=O)c2ccccc2C1=O (centres undefined) | 1.8 µM |
| 1.53 µM | 4.85 µM | 3.02 µM |  | CC(C)(COC(=O)c1ccccc1)CC1=C(O)C(=O)c2ccccc2C1=O | 48.6 µM |
| 32 µM | 45.2 µM | 41.2 µM |  | CC(C)(COC(=O)c1ccc2ccccc2c1)CC1=CC(=O)c2ccccc2C1=O | 33.3 µM |
| 4.65 µM | 11.6 µM | 10.3 µM |  | CC(COC(=O)c1ccccc1O)CC1=C(O)C(=O)c2ccccc2C1=O (centres undefined) | 75.9 µM |
| 0.35 µM | 0.97 µM | 1.09 µM |  | COc1cc(C(=O)OCC(C)(C)CC2=C(O)C(=O)c3ccccc3C2=O)c(OC)c2ccccc12 | 32.7 µM |
| 11.2 µM |  |  |  | CC(C)(CO)CC1=C(O)C(=O)c2ccccc2C1=O |  |
| 10.1 µM | 11.5 µM | 9.47 µM |  | COC1=C(CC(C)(C)COC(=O)c2ccc3ccccc3c2OC)C(=O)c2ccccc2C1=O | 5.96 µM |
| 4.09 µM | 4.28 µM | 4.24 µM |  | COc1cc(C(=O)OCCCC2=C(O)C(=O)c3ccccc3C2=O)c(O)c2ccccc12 | 40.9 µM |
| 50 µM | 54.2 µM | 47.5 µM |  | COc1c(C(=O)OCCCC2=CC(=O)c3ccccc3C2=O)ccc2ccccc12 | 40 µM |
| > 259 µM | > 259 µM | > 259 µM |  | O=C1C=C(CCCOC(=O)c2ccc3ccccc3c2O)C(=O)c2ccccc21 | > 259 µM |
|  |  |  | Not Active | O=C1C(O)=C(CCCO)C(=O)c2ccccc21 |  |
| 4.57 µM | 8.43 µM | 4.76 µM |  | CC(COC(=O)c1ccccc1)CC1=C(O)C(=O)c2ccccc2C1=O (centres undefined) | 2.31 µM |
| 0.03 µM | 0.4 µM | 0.33 µM |  | COc1cccc2c1C(=O)c1c(O)c3c(c(O)c1C2=O)C[C@@](O)(C(=O)CO)C[C@@H]3O[C@H]1C[C@H](N)[C@H](O)[C@H](C)O1 [DOXORUBICIN] | 23.9 µM |
| 26.4 µM | 39.5 µM | 39.5 µM |  | COc1c(C(=O)OCC(C)CC2=CC(=O)c3ccccc3C2=O)ccc2ccccc12 (centres undefined) | 20.2 µM |
| 1.18 µM | 1.61 µM | 3.33 µM |  | COc1ccc(O)c(C(=O)OCC(C)(C)CC2=C(O)C(=O)c3ccccc3C2=O)c1 | 11.5 µM |

| IC50 (KB [1]) | IC50 (HepG2) | IC50 (HeLa) | IC50 (KB [2]) | Compound | IC50 (Vero) |
| --- | --- | --- | --- | --- | --- |
|  |  |  | Not Active | O=C(O)C1=CCc2ccccc2C1 |  |
| 1.64 µM | 4.04 µM | 4.12 µM |  | COc1ccccc1C(=O)OCC(C)CC1=C(O)C(=O)c2ccccc2C1=O (centres undefined) | 29.8 µM |
| 33.7 µM | 45.7 µM | 42.9 µM |  | COc1c(C(=O)OCCCC2=C(O)C(=O)c3ccccc3C2=O)ccc2ccccc12 | 120 µM |
|  |  |  | Not Active | COC1C(C(=O)O)=CCc2ccccc21 (centres undefined) |  |
| < 0.22 µM | 0.38 µM | 0.3 µM |  | COc1cc(C(=O)OCC(C)(C)CC2=C(O)C(=O)c3ccccc3C2=O)c(O)c2ccccc12 | 12.7 µM |
| 1.86 µM | 4.72 µM | 4.04 µM |  | COc1ccccc1C(=O)OCC(C)(C)CC1=C(O)C(=O)c2ccccc2C1=O | 8.98 µM |
|  |  |  | Not Active | COC1C=C(C(=O)O)C(OC)c2ccccc21 (centres undefined) |  |
| 2.16 µM | 3.14 µM | 2.83 µM |  | COc1cc(C(=O)OCC(C)CC2=C(O)C(=O)c3ccccc3C2=O)c(O)c2ccccc12 (centres undefined) | < 0.22 µM |
| 93.8 µM | 64.4 µM | 45.4 µM |  | COc1cc(C(=O)OCCCC2=CC(=O)c3ccccc3C2=O)c(O)c2ccccc12 | 48.5 µM |
| 4.65 µM | 5.44 µM | 4.34 µM |  | CC(C)(COC(=O)c1ccccc1O)CC1=C(O)C(=O)c2ccccc2C1=O | > 136 µM |
| 12.8 µM | 35.9 µM | 32.3 µM |  | COc1cc(C(=O)OCCCC2=C(O)C(=O)c3ccccc3C2=O)c(OC)c2ccccc12 | 75.4 µM |
| 4.04 µM | 4.96 µM | 4.55 µM |  | COc1ccc(O)c(C(=O)OCC(C)CC2=C(O)C(=O)c3ccccc3C2=O)c1 (centres undefined) | 14 µM |
| 43 µM | 46.7 µM | 40.6 µM |  | COC1=C(CC(C)(C)COC(=O)c2ccccc2)C(=O)c2ccccc2C1=O | 34.8 µM |
| 1.06 µM | 1 µM | 3.97 µM |  | CC(COC(=O)c1ccc2ccccc2c1O)CC1=C(O)C(=O)c2ccccc2C1=O (centres undefined) | 0.7 µM |
| 0.66 µM | 1.04 µM | 0.38 µM |  | COc1c(C(=O)OCC(C)CC2=C(O)C(=O)c3ccccc3C2=O)ccc2ccccc12 (centres undefined) | 0.97 µM |
| 14.4 µM | 15.5 µM | 15.8 µM |  | O=C1C(=O)c2ccccc2C(O)=C1CCCOC(=O)c1ccc2ccccc2c1 | 24 µM |
| < 0.23 µM | 0.32 µM | < 0.23 µM |  | CC(C)(COC(=O)c1ccc2ccccc2c1O)CC1=C(O)C(=O)c2ccccc2C1=O | 1 µM |
| 29 µM | 27.3 µM | 38.2 µM |  | CC(COC(=O)c1ccc2ccccc2c1)CC1=CC(=O)c2ccccc2C1=O (centres undefined) | 43.4 µM |
| 4.22 µM | 12.9 µM | 12.4 µM |  | CC(C)(COC(=O)c1cc(O)c2ccccc2c1O)CC1=C(O)C(=O)c2ccccc2C1=O | 15.4 µM |
| 37.6 µM | 53.1 µM | 41.9 µM |  | COc1ccc(OC)c(C(=O)OCC(C)CC2=C(O)C(=O)c3ccccc3C2=O)c1 (centres undefined) | 4.05 µM |
| < 0.22 µM | 0.24 µM | 0.23 µM |  | COc1c(C(=O)OCC(C)(C)CC2=C(O)C(=O)c3ccccc3C2=O)ccc2ccccc12 | 17.6 µM |
| 3.38 µM | 3.54 µM | 3.42 µM |  | COc1ccc(OC)c(C(=O)OCC(C)(C)CC2=C(O)C(=O)c3ccccc3C2=O)c1 | 9.11 µM |
| 38.2 µM | 48.3 µM | 45.9 µM |  | CC(C)(COC(=O)c1ccc2ccccc2c1O)CC1=CC(=O)c2ccccc2C1=O | 90.8 µM |
| 12.5 µM | 14.4 µM | 36.9 µM |  | COc1c(C(=O)OCC(C)(C)CC2=CC(=O)c3ccccc3C2=O)ccc2ccccc12 | 30.4 µM |
| > 233 µM | > 233 µM | > 233 µM |  | COc1cc(C(=O)OCCCC2=CC(=O)c3ccccc3C2=O)c(OC)c2ccccc12 | > 233 µM |
